From BigSolDB 2.1

`CCOC(=O)[C@H](CCc1ccccc1)N[C@@H](C)C(=O)N1CCC[C@H]1C(=O)O.O=C(O)/C=C\C(=O)O` gave a solubility (mole fraction) (in acetone, 273.15 K) of 0.00118, a solubility (mole fraction) (in acetone, 278.15 K) of 0.00139 and a solubility (mole fraction) (in acetone, 283.15 K) of 0.00176. It also gave a solubility (mole fraction) (in acetone, 288.15 K) of 0.0021, a solubility (mole fraction) (in acetone, 293.15 K) of 0.00243 and a solubility (mole fraction) (in acetone, 298.15 K) of 0.00302. It also gave a solubility (mole fraction) (in acetone, 303.15 K) of 0.0038, a solubility (mole fraction) (in acetone, 308.15 K) of 0.00451 and a solubility (mole fraction) (in acetone, 313.15 K) of 0.0054. The solubility (mole fraction) (in acetone, 318.15 K) was 0.00651, the solubility (mole fraction) (in acetonitrile, 273.15 K) was 0.000339 and the solubility (mole fraction) (in acetonitrile, 278.15 K) was 0.000452. For the same molecule, the solubility (mole fraction) (in acetonitrile, 283.15 K) was 0.000569, the solubility (mole fraction) (in acetonitrile, 288.15 K) was 0.000716 and the solubility (mole fraction) (in acetonitrile, 293.15 K) was 0.0009. For the same molecule, the solubility (mole fraction) (in acetonitrile, 298.15 K) was 0.00117, the solubility (mole fraction) (in acetonitrile, 303.15 K) was 0.00153 and the solubility (mole fraction) (in acetonitrile, 308.15 K) was 0.00204. For the same molecule, the solubility (mole fraction) (in acetonitrile, 313.15 K) was 0.00261, the solubility (mole fraction) (in acetonitrile, 318.15 K) was 0.00334 and the solubility (mole fraction) (in ethanol, 273.15 K) was 0.000616. The solubility (mole fraction) (in ethanol, 278.15 K) was 0.000761, the solubility (mole fraction) (in ethanol, 283.15 K) was 0.000998 and the solubility (mole fraction) (in ethanol, 288.15 K) was 0.00133. It also gave a solubility (mole fraction) (in ethanol, 293.15 K) of 0.00177, a solubility (mole fraction) (in ethanol, 298.15 K) of 0.00226 and a solubility (mole fraction) (in ethanol, 303.15 K) of 0.00292. For the same molecule, the solubility (mole fraction) (in ethanol, 308.15 K) was 0.00366, the solubility (mole fraction) (in ethanol, 313.15 K) was 0.00449 and the solubility (mole fraction) (in ethanol, 318.15 K) was 0.00536. It also gave a solubility (mole fraction) (in ethyl acetate, 273.15 K) of 0.0013, a solubility (mole fraction) (in ethyl acetate, 278.15 K) of 0.00171 and a solubility (mole fraction) (in ethyl acetate, 283.15 K) of 0.00231. The solubility (mole fraction) (in ethyl acetate, 288.15 K) was 0.00304, the solubility (mole fraction) (in ethyl acetate, 293.15 K) was 0.00379 and the solubility (mole fraction) (in ethyl acetate, 298.15 K) was 0.00471. For the same molecule, the solubility (mole fraction) (in ethyl acetate, 303.15 K) was 0.00576, the solubility (mole fraction) (in ethyl acetate, 308.15 K) was 0.00689 and the solubility (mole fraction) (in ethyl acetate, 313.15 K) was 0.00796. It also gave a solubility (mole fraction) (in ethyl acetate, 318.15 K) of 0.00941, a solubility (mole fraction) (in isopropanol, 273.15 K) of 0.000144 and a solubility (mole fraction) (in isopropanol, 278.15 K) of 0.000184. It also gave a solubility (mole fraction) (in isopropanol, 283.15 K) of 0.000242, a solubility (mole fraction) (in isopropanol, 288.15 K) of 0.000327 and a solubility (mole fraction) (in isopropanol, 293.15 K) of 0.000452. The solubility (mole fraction) (in isopropanol, 298.15 K) was 0.000605, the solubility (mole fraction) (in isopropanol, 303.15 K) was 0.000809 and the solubility (mole fraction) (in isopropanol, 308.15 K) was 0.00105. The solubility (mole fraction) (in isopropanol, 313.15 K) was 0.00133, the solubility (mole fraction) (in isopropanol, 318.15 K) was 0.00176 and the solubility (mole fraction) (in n-octanol, 273.15 K) was 0.000311. It also gave a solubility (mole fraction) (in n-octanol, 278.15 K) of 0.000406, a solubility (mole fraction) (in n-octanol, 283.15 K) of 0.000509 and a solubility (mole fraction) (in n-octanol, 288.15 K) of 0.000642. It also gave a solubility (mole fraction) (in n-octanol, 293.15 K) of 0.00083, a solubility (mole fraction) (in n-octanol, 298.15 K) of 0.00105 and a solubility (mole fraction) (in n-octanol, 303.15 K) of 0.00131. It also gave a solubility (mole fraction) (in n-octanol, 308.15 K) of 0.00167, a solubility (mole fraction) (in n-octanol, 313.15 K) of 0.00206 and a solubility (mole fraction) (in n-octanol, 318.15 K) of 0.00256.
With `CCOC(=O)[C@H](CCc1ccccc1)N[C@@H](C)C(=O)O` the solubility (mole fraction) (in acetone, 273.15 K) was 0.00387, the solubility (mole fraction) (in acetone, 278.15 K) was 0.00426 and the solubility (mole fraction) (in acetone, 283.15 K) was 0.00468. For the same molecule, the solubility (mole fraction) (in acetone, 288.15 K) was 0.00515, the solubility (mole fraction) (in acetone, 293.15 K) was 0.00568 and the solubility (mole fraction) (in acetone, 298.15 K) was 0.00627. The solubility (mole fraction) (in acetone, 303.15 K) was 0.007, the solubility (mole fraction) (in acetone, 308.15 K) was 0.0078 and the solubility (mole fraction) (in acetone, 313.15 K) was 0.00868. The solubility (mole fraction) (in acetone, 318.15 K) was 0.0097, the solubility (mole fraction) (in acetonitrile, 273.15 K) was 0.00012 and the solubility (mole fraction) (in acetonitrile, 278.15 K) was 0.000199. For the same molecule, the solubility (mole fraction) (in acetonitrile, 283.15 K) was 0.000288, the solubility (mole fraction) (in acetonitrile, 288.15 K) was 0.000427 and the solubility (mole fraction) (in acetonitrile, 293.15 K) was 0.000608. For the same molecule, the solubility (mole fraction) (in acetonitrile, 298.15 K) was 0.000907, the solubility (mole fraction) (in acetonitrile, 303.15 K) was 0.00129 and the solubility (mole fraction) (in acetonitrile, 308.15 K) was 0.00183. The solubility (mole fraction) (in acetonitrile, 313.15 K) was 0.00255, the solubility (mole fraction) (in acetonitrile, 318.15 K) was 0.00349 and the solubility (mole fraction) (in ethanol, 273.15 K) was 0.00273. The solubility (mole fraction) (in ethanol, 278.15 K) was 0.00281, the solubility (mole fraction) (in ethanol, 283.15 K) was 0.00294 and the solubility (mole fraction) (in ethanol, 288.15 K) was 0.00312. For the same molecule, the solubility (mole fraction) (in ethanol, 293.15 K) was 0.00334, the solubility (mole fraction) (in ethanol, 298.15 K) was 0.0036 and the solubility (mole fraction) (in ethanol, 303.15 K) was 0.00396. For the same molecule, the solubility (mole fraction) (in ethanol, 308.15 K) was 0.00436, the solubility (mole fraction) (in ethanol, 313.15 K) was 0.00489 and the solubility (mole fraction) (in ethanol, 318.15 K) was 0.00545. The solubility (mole fraction) (in ethyl acetate, 273.15 K) was 0.00898, the solubility (mole fraction) (in ethyl acetate, 278.15 K) was 0.0092 and the solubility (mole fraction) (in ethyl acetate, 283.15 K) was 0.00951. It also gave a solubility (mole fraction) (in ethyl acetate, 288.15 K) of 0.00991, a solubility (mole fraction) (in ethyl acetate, 293.15 K) of 0.0104 and a solubility (mole fraction) (in ethyl acetate, 298.15 K) of 0.0109. It also gave a solubility (mole fraction) (in ethyl acetate, 303.15 K) of 0.0115, a solubility (mole fraction) (in ethyl acetate, 308.15 K) of 0.0123 and a solubility (mole fraction) (in ethyl acetate, 313.15 K) of 0.0131. It also gave a solubility (mole fraction) (in ethyl acetate, 318.15 K) of 0.014, a solubility (mole fraction) (in isopropanol, 273.15 K) of 0.000921 and a solubility (mole fraction) (in isopropanol, 278.15 K) of 0.00105. It also gave a solubility (mole fraction) (in isopropanol, 283.15 K) of 0.0012, a solubility (mole fraction) (in isopropanol, 288.15 K) of 0.00141 and a solubility (mole fraction) (in isopropanol, 293.15 K) of 0.00164. It also gave a solubility (mole fraction) (in isopropanol, 298.15 K) of 0.00191, a solubility (mole fraction) (in isopropanol, 303.15 K) of 0.00221 and a solubility (mole fraction) (in isopropanol, 308.15 K) of 0.00257. It also gave a solubility (mole fraction) (in isopropanol, 313.15 K) of 0.00298, a solubility (mole fraction) (in isopropanol, 318.15 K) of 0.00346 and a solubility (mole fraction) (in n-octanol, 273.15 K) of 0.00215. For the same molecule, the solubility (mole fraction) (in n-octanol, 278.15 K) was 0.00223, the solubility (mole fraction) (in n-octanol, 283.15 K) was 0.00233 and the solubility (mole fraction) (in n-octanol, 288.15 K) was 0.00246. It also gave a solubility (mole fraction) (in n-octanol, 293.15 K) of 0.00263, a solubility (mole fraction) (in n-octanol, 298.15 K) of 0.00284 and a solubility (mole fraction) (in n-octanol, 303.15 K) of 0.0031. The solubility (mole fraction) (in n-octanol, 308.15 K) was 0.00343, the solubility (mole fraction) (in n-octanol, 313.15 K) was 0.00378 and the solubility (mole fraction) (in n-octanol, 318.15 K) was 0.0042.
